From patent US5420335A, “Parenteral nutrients based on watersoluble glycerol bisacetoacetates” (priority 1993, dated 1995)
“And” between values parts separate entries of the source, which are not always exact repeats. Equal entries are not always repeated. “Also recorded” adds a separate entry of the source.

Key:
[1] = Oral dietary nitrogen (food) intake of intravenously infused rats; format: in vivo, rat (male Sprague-Dawley); conditions: Table 1, Example 2, average of 7 rats
[2] = Liver weight after 7 days of infusion; format: in vivo, rat (male Sprague-Dawley); conditions: for Liver/100 GM / Liver Wt.: Table 5, Example 2; for Liver/100 GM: as percentage of body weight
Method: (§1) Infusate volume, oral food intake, body weight and urinary volume and total nitrogen were monitored daily for each rat. Infusate volume and food intake were determined by weighing the appropriate container at the start and end of each 24 hr. period. Measurements were recorded between 9 and 10 AM each day. At the end of the 7th day, rats were sacrificed, and blood and liver were harvested. Plasma was separated for measurement of free fatty acids, glucose, and ketone bodies. Liver was weighed and a sample was fixed in buffered formalin for gross histology.
The data were analyzed for significance by the one-way analysis of variance with repeated measures and comparing the effect of dietary treatment on each day. […] The null hypothesis was concluded invalid if p≤0.05. The analysis of variance was computed on a SAS statistical package. […]

[3] = Overall evaluation as a parenteral nutrient; format: in vivo, rat (male Sprague-Dawley); conditions: in words
Method: (§2) Water was available ad libitum at all times.
(§3) The vein was then ligated dorsally to the catheter. […] Body weights were measured daily.
as §1
(§4) The data were analyzed for significance by the one-way analysis of variance with repeated measures and comparing the effect of dietary treatment on each day. […] The null hypothesis was concluded invalid if p≤0.05. The analysis of variance was computed on a SAS statistical package.

[4] = Oral dietary nitrogen (food) intake of intravenously infused rats; format: in vivo, rat (male Sprague-Dawley); conditions: for Dietary Nitrogen Intake: Table 1, Example 2
Method: as §2, §3, §1, §4
This compound has an estimated energy density of 4.86 kcal/gram based on thermodynamic data from similar compounds.

[5] = Mortality and gross toxicity on intravenous infusion; conditions: Example 2; 12.5 g/100 mL in 0.9% saline, 50 mL/day i.v.
Method: as §2, §3

[6] = Plasma free fatty acids, glucose and ketone bodies after 7 days of infusion; format: in vivo, rat (male Sprague-Dawley); conditions: end of day 7; for ACAC / BOHB / FFa / Glucose / Ratio: A/B / T.KB: Table 5, Example 2; for T.KB: total ketone bodies
Method: as §1, §4

[7] = Nitrogen balance (difference between intake and urinary output); format: in vivo, rat (male Sprague-Dawley); conditions: for Nitrogen Balance, Difference Between Intake and Output: Table 3, Example 2
Method: as §2, §3, §1, §4
FIG. 3 illustrates the difference between oral intake and urinary nitrogen output which is termed nitrogen balance. It is representative of nitrogen balance because urinary nitrogen is the major route for body loss of nitrogen.
The experimental compound contains 8% nitrogen. With an infusion of 5.6 grams/day, infused nitrogen would provide approximately 450 mg more than that listed in the data tables. The final balance figures includes this number which is calculated based on the actual daily infusion rate for each rat.

[8] = day 1, individual rat, listed as BISACETOACETYLGLYCEROL

Substance: Glycerol bis-acetoacetate [Compound 1]
- Dietary Nitrogen Intake ([1]; day 1): 216 MG N
- Dietary Nitrogen Intake ([1]; day 2): 333 MG N
- Dietary Nitrogen Intake ([1]; day 3): 408 MG N
- Dietary Nitrogen Intake ([1]; day 4): 454 MG N
- Dietary Nitrogen Intake ([1]; day 5): 419 MG N
- Dietary Nitrogen Intake ([1]; day 7): 389 MG N
- Liver/100 GM ([2]; average of 7 rats): 3.223
- Liver/100 GM ([2]; individual rat): 2.859 and 3.494 and 3.130 and 3.795 and 2.482 and 3.183 and 3.620
- Liver Wt. ([2]; end of day 7, average of 7 rats): 8.603 Grams
- Liver Wt. ([2]; end of day 7, individual rat): 7.12 Grams and 9.12 Grams and 7.92 Grams and 11.65 Grams and 6.85 Grams and 8.69 Grams and 8.87 Grams
- liver weight and percentage liver weight ([2]; in words, end of day 7): similarity between glucose infused and experimental compound infused rats liver
- efficacy as parenteral nutrient / energy source [3]: providing significant energy beyond that which was available from oral dietary intake
- efficacy as parenteral nutrient / energy source ([3]; listed as 1,2- and 1,3-bisacetoacetyl glycerol): unexpectedly high nutrient activity
- Dietary Nitrogen Intake [4, 8]: 118.44 MG N and 125.02 MG N and 138.18 MG N and 611.94 MG N and 250.04 MG N and 151.34 MG N
- Dietary Nitrogen Intake ([4]; day 2, individual rat, listed as BISACETOACETYLGLYCEROL): 342.16 MG N and 434.28 MG N and 131.6 MG N and 519.82 MG N and 447.44 MG N and 322.42 MG N
- Dietary Nitrogen Intake ([4]; day 3, individual rat, listed as BISACETOACETYLGLYCEROL): 302.68 MG N and 631.68 MG N and 105.28 MG N and 447.44 MG N and 473.76 MG N and 263.2 MG N
- Dietary Nitrogen Intake ([4]; day 4, individual rat, listed as BISACETOACETYLGLYCEROL): 671.16 MG N and 638.26 MG N and 78.96 MG N and 579.04 MG N and 414.54 MG N and 407.96 MG N and 388.22 MG N
- Dietary Nitrogen Intake ([4]; day 5, individual rat, listed as BISACETOACETYLGLYCEROL): 559.3 MG N and 572.46 MG N and 230.3 MG N and 388.22 MG N and 618.52 MG N and 269.78 MG N and 296.1 MG N
- Dietary Nitrogen Intake ([4]; day 6, average of 7 rats): 361 MG N
- Dietary Nitrogen Intake ([4]; day 6, individual rat, listed as BISACETOACETYLGLYCEROL): 539.56 MG N and 230.3 MG N and 59.22 MG N and 375.06 MG N and 625.1 MG N and 414.54 MG N and 282.94 MG N
- Dietary Nitrogen Intake ([4]; day 7, individual rat, listed as BISACETOACETYLGLYCEROL): 565.88 MG N and 263.2 MG N and 151.34 MG N and 421.12 MG N and 644.84 MG N and 473.76 MG N and 203.98 MG N
- differences in dietary nitrogen intake among the three groups ([4]; in words, vs saline and other groups, 7 days): no differences in dietary nitrogen intake among the three groups
- rats died from causes unknown [5]: Five
- ACAC ([6]; plasma, average of 7 rats): 0.716 mmol/L
- BOHB ([6]; plasma, average of 7 rats): 0.776 mmol/L
- FFa ([6]; plasma, average of 7 rats): 0.563 mmol/L
- Glucose ([6]; plasma, average of 7 rats): 117.789 mg/dL
- Ratio: A/B ([6]; plasma, average of 7 rats): 1.171
- ACAC ([6]; plasma, individual rat): 0.982 mmol/L and 0.851 mmol/L and 0.939 mmol/L and 0.447 mmol/L and 0.869 mmol/L and 0.550 mmol/L and 0.377 mmol/L
- BOHB ([6]; plasma, individual rat): 0.797 mmol/L and 0.770 mmol/L and 1.059 mmol/L and 0.529 mmol/L and 1.021 mmol/L and 0.404 mmol/L and 0.849 mmol/L
- FFa ([6]; plasma, individual rat): 0.540 mmol/L and 0.574 mmol/L and 0.745 mmol/L and 0.466 mmol/L and 0.483 mmol/L and 0.615 mmol/L and 0.519 mmol/L
- Glucose ([6]; plasma, individual rat): 94.920 mg/dL and 149.000 mg/dL and 114.200 mg/dL and 163.500 mg/dL and 89.000 mg/dL and 122.100 mg/dL and 91.800 mg/dL
- Ratio: A/B ([6]; plasma, individual rat): 0.812 and 0.905 and 1.128 and 1.185 and 1.175 and 0.735 and 2.254
- T.KB ([6]; plasma, average of 7 rats): 1.492 mmol/L
- T.KB ([6]; plasma, individual rat): 1.779 mmol/L and 1.621 mmol/L and 1.998 mmol/L and 0.976 mmol/L and 1.890 mmol/L and 0.954 mmol/L and 1.226 mmol/L
- blood / plasma glucose ([6]; in words): normal blood glucose; also recorded: did not have the hyperglycemia associated with glucose infusion
- free fatty acid concentration ([6]; in words, plasma): not different for the three groups
- ketone bodies ([6]; in words, plasma): elevated; also recorded: approximately the maximum associated with total fasting in the rat
- nitrogen balance ([7]; Example 2, 7 days): around +200 mg/day
- Nitrogen Balance, Difference Between Intake and Output ([7]; day 1, average of 7 rats): 50 MG N
- Nitrogen Balance, Difference Between Intake and Output [7, 8]: 2.23 MG N and -125.18 MG N and -49.12 MG N and 488.57 MG N and 67.86 MG N and -8.55 MG N and -26.62 MG N
- Nitrogen Balance, Difference Between Intake and Output ([7]; day 2, average of 7 rats): 141 MG N
